These results are taken from patent US4918067A, “Heterocyclic substituted penicillin antibiotics” (Beecham Group p.l.c., priority 1986, dated 1990).

Common to all, as to assay type: cell-based
In assay [1] the test system is S. aureus Russell. Description: in vitro MIC against S. aureus Russell. To be noted: Staphylococcus aureus. How it is done:
(§1) The compound of the Example was tested in vitro against a number of microorganisms.

In assay [2] the test system is B. catarrhalis Ravasio. Kind of assay: in vitro MIC against B. catarrhalis Ravasio. The settings on record: Moraxella catarrhalis. As to the method:
as §1

Assay [3] deals with S. pyogenes CN10. Kind of assay: in vitro MIC against S. pyogenes CN10. The settings on record: Streptococcus pyogenes. How it is done: as §1
Assay [4] concerns H. influenzae Ql. Kind of assay: in vitro MIC against H. influenzae Ql. To be noted: Haemophilus influenzae. As to the method:
as §1

Assay [5] has as its system E. Coli ESS. Kind of assay: in vitro MIC against E. Coli ESS. The settings on record: Escherichia coli. As to the method:
as §1

For assay [6], the system named is S. aureus MB9. Kind of assay: in vitro MIC against S. aureus MB9. The settings on record: Staphylococcus aureus. As to the method: as §1
Assay [7] concerns S. aureus Oxford. Kind of assay: in vitro MIC against S. aureus Oxford. To be noted: Staphylococcus aureus. How it is done:
as §1

Assay [8] relates to S. pneumoniae 1761. Kind of assay: in vitro MIC against S. pneumoniae 1761. The settings on record: Streptococcus pneumoniae. How it is done: as §1
For assay [9], the system named is H. influenzae NEMCl. Description: in vitro MIC against H. influenzae NEMCl. The settings on record: Haemophilus influenzae. As to the method: as §1
For assay [10], the system named is S. agalacticae 2798. Description: in vitro MIC against S. agalacticae 2798. How it is done:
as §1

The test system of assay [11] is S. epidermidis PHLN20. Kind of assay: in vitro MIC against S. epidermidis PHLN20. To be noted: Staphylococcus epidermidis. How it is done:
as §1

`CC1(C)S[C@@H]2[C@H](NC(=O)/C(=N\OC3CCCCC3)c3cccc(N)n3)C(=O)N2[C@H]1C(=O)O` [Example 1, Sodium 6-β-[2-(2-aminopyridin-6-yl) 2-(Z)-cyclohexyl-oxiyminoacetamido]penicillinate]: the MIC is 0.5 µg/mL in assay [1]; 0.5 µg/mL in assay [2]; below 0.03 µg/mL in assay [3]; 1 µg/mL in assay [4]; 0.12 µg/mL in assay [5]; 2 µg/mL in assay [6]. Besides, the MIC in [7] is 0.5 µg/mL; in assay [8], below 0.03 µg/mL; in [9], 1 µg/mL; in assay [10] it was 0.25 µg/mL; in assay [11] it was 0.5 µg/mL.
